Test results published in patent EP3290412A1, “HIV-1 NUCLEOCAPSID INHIBITORS” (Università degli Studi di Siena, priority 2016, dated 2018).

Experiments:
[1] = molecular target: NC(11-55) (Human immunodeficiency virus type 1, UniProt P12493); test: NC inhibition assay (NC-induced cTAR DNA destabilization, fluorescence); type: biochemical, HIV-1; conditions: single point screening; positive = >25% inhibition at 100µM
Summary of the method: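 Doubly labelled cTAR (0.1 µM, Alexa488/Dabcyl) pre-complexed with 1 µM Zn-loaded NC(11-55) for 15 min, then compound added for a further 15 min; run at 20 °C in Tris-HCl pH 7.5, 30 mM NaCl, 0.2 mM MgCl2. Fluorescence read at ex 480/em 520 nm. IC50 taken from dose-response fit of % inhibition of NC-induced fluorescence increase.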

[2] = tested on: Peripheral blood mononuclear cells (PBMC); type: cell-based; conditions: human, 7 days
Summary of the method: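 Healthy-donor PBMC stimulated 2 days with 5 µg/mL PHA, then seeded at 1x10^5 cells/well in medium with 20 IU/mL IL-2 and exposed to compound for 7 days. Viability measured by MTS (4 h, OD 490 nm). TD50 interpolated from dose versus percent mortality relative to untreated cells.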

SMILES: C[C@H](NC(=O)c1nc(-c2ccc(C(=O)OCc3ccccc3)cn2)nc(O)c1O)C1CCCCC1 [Compound 70, benzyl (S)-6-(4-((1-cyclohexylethyl)carbamoyl)-5,6-dihydroxypyrimidin-2-yl)nicotinate]
- inhibition at 100 µM [1]: > 25%
- Proliferation assay PBMC TD50 [2]: 500 nM

SMILES: C[C@H](NC(=O)c1nc(-c2cc(C(=O)OCc3ccccc3)ccn2)nc(O)c1O)C1CCCCC1 [Compound 71, benzyl (S)-2-(4-((1-cyclohexylethyl)carbamoyl)-5,6-dihydroxypyrimidin-2-yl)isonicotinate]
- inhibition at 100 µM [1]: > 25%
- Proliferation assay PBMC TD50 [2]: 1420 nM

SMILES: C[C@H](NC(=O)c1nc(-c2cc3ccccc3cn2)nc(O)c1O)C1CCCCC1 [Compound 72, (S)-N-(1-cyclohexylethyl)-5,6-dihydroxy-2-(isoquinolin-3-yl)pyrimidine-4-carboxamide]
- inhibition at 100 µM [1]: > 25%
- Proliferation assay PBMC TD50 [2]: 2270 nM

SMILES: Cc1cc(-c2nc(O)c(O)c(C(=O)N[C@H](C)C3CCCCC3)n2)nc2ccccc12 [Compound 73, (R)-N-(1-cyclohexylethyl)-5,6-dihydroxy-2-(4-methylquinolin-2-yl)pyrimidine-4-carboxamide]
- inhibition at 100 µM [1]: > 25%
- Proliferation assay PBMC TD50 [2]: 5790 nM

SMILES: C[C@@H](NC(=O)c1nc(-c2cc(C(=O)NCc3ccccc3)ccn2)nc(O)c1O)C1CCCCC1 [Compound 74, (R)-2-(4-(benzylcarbamoyl)pyridin-2-yl)-N-(1-cyclohexylethyl)-5,6-dihydroxypyrimidine-4-carboxamide]
- inhibition at 100 µM [1]: > 25%
- Proliferation assay PBMC TD50 [2]: 1680 nM

SMILES: C[C@H](NC(=O)c1nc(-c2ccc3ccccc3n2)nc(O)c1O)C1CCCCC1 [Compound 75, (S)-N-(1-cyclohexylethyl)-5,6-dihydroxy-2-(quinolin-2-yl)pyrimidine-4-carboxamide]
- inhibition at 100 µM [1]: > 25%
- Proliferation assay PBMC TD50 [2]: 6900 nM

SMILES: Cc1ccnc(-c2nc(O)c(O)c(C(=O)NC3(C4CCCCC4)CC3)n2)c1 [Compound 84, N-(1-cyclohexylcyclopropyl)-5,6-dihydroxy-2-(4-methylpyridin-2-yl)pyrimidine-4-carboxamide]
- inhibition at 100 µM [1]: > 25%
- Proliferation assay PBMC TD50 [2]: 3470 nM

SMILES: CC(NC(=O)c1nc(-c2nccc3ccccc23)nc(O)c1O)C1CCC(F)(F)CC1 (stereo not shown) [Compound 90, N-(1-(4,4-difluorocyclohexyl)ethyl)-5,6-dihydroxy-2-(isoquinolin-1-yl)pyrimidine-4-carboxamide]
- inhibition at 100 µM [1]: > 25%
- Proliferation assay PBMC TD50 [2]: 4270 nM
